Measured values: US20240277606A1, “METHODS FOR THE PULSED DELIVERY OF BIOACTIVE AGENTS” (University of Mississippi, priority 2021, published 2024)

Columns and labels:
5HT2A receptor = target: T1, 5HT2A receptor (Homo sapiens, UniProt P28223); experiment: In vitro bioactivity: calcium flux (Fluo-8) in 5HT2A serotonin receptor cells; assay type: cell-based; details: 5 μM, 1 hr treatment, versus PBS control
T1 construct: host or cells: Chem-1 cells (parental control HTSCHEM-1RTA)
Protocol: Briefly, 5HT2A serotonin receptor cells (Millipore Sigma, HTS082RTA) and chem-1 parental control cells (Millipore Sigma, HTSCHEM-1RTA) were seeded in 96 well plates (5000 cells-100 μl/well of 50,000 cells/ml solution) and allowed to adhere overnight. […] After 1 hr, Fluo-8 green dye solution (Abcam, ab112129) was added to the cells, incubated 30 min at 37° C., and then incubated for 30 minutes at room temperature, followed by fluorescence measurements on a microplate reader.

[1] = In vitro release from single-layered CAPP films; assay type: physicochemical; details: for release rate compared with Rhodamine dye: from 0.1 mm thick CAPP films
Protocol: Next, drug release from single-layered CAPP films of 0.1, 0.2, 0.3, and 0.4 mm thickness was quantified. Drug release was measured by encapsulating Rhodamine fluorescent dye within the films and closely matched the erosion times reported above. Complete release from 0.1 mm thick films occurred after ˜18 hrs (FIG. 4A). Complete release from 0.2 mm thick films occurred after ˜36 hrs (FIG. 4A). Complete release from 0.3 mm thick films occurred after ˜60 hrs (FIG. 4A). Complete release from 0.4 mm thick films occurred after ˜78 hrs (FIG. 4A). Importantly, release of 5HT2A agonists from 0.1 mm thick CAPP films was also measured, since 0.1 mm thick films are used to encapsulate drug in the multilayered films.

[2] = Pulsed delivery of DOI from subcutaneously implanted multilayer CAPP films coated with PSA; assay type: in vivo; details: seven-layer CAPP film, subcutaneous
Excerpt: The multilayered CAPP films used for this study had seven layers, where layers 1, 4, and 7 were DOI-loaded 0.1 mm thick CAPP films at 70:30 CAP:P ratio and layers 2, 3, 5, and 6 were unloaded (Blank) 0.4 mm thick CAPP films at 90:10 CAP:P ratio. The layered devices were then coated on all sides but one (the top of layer 1) with the biocompatible polymer polysebacic acid (PSA). After implantation, the anticipated pulsed release schedule of DOI was observed, with three distinct DOI pulses where peak concentrations in the plasma occurred at ˜2, 12, and 24 hrs post-implantation.

[3] = Follow-up plasma and organ pharmacokinetics of DOI from subcutaneously implanted 0.1 mm CAPP films; assay type: in vivo, CD-1 mice; details: post-implantation of 0.1 mm thick CAPP films, subcutaneous
Excerpt: (§1) Single-layered films loaded with DOI and blank single-layered films have been constructed. These films were sterilized and implanted subcutaneously in the dorsal flap of CD-1 mice in an initial pilot experiment. This pilot experiment enabled optimization of blood collection time points, ensure the ability to detect DOI with current bioanalytical techniques, and will inform the design of the rest of the in vivo studies. Briefly, films were implanted subcutaneously followed by blood and organ collection at 8, 16, and 24 hrs to monitor blood pharmacokinetics of DOI released from the 0.1 mm thick CAPP films in vivo. […] The concentration of DOI in the blood of mice returned to baseline by 16 hrs and remained at baseline through 24 hrs. […] This pilot experiment was repeated to: 1) sample at earlier time points for better overall fidelity and 2) to also determine the concentration of DOI in major organs, particularly the brain. […] As expected based on the plasma pharmacokinetics, it was observed that the peak concentration of DOI in the brain, liver, and kidneys was ˜2-4 hrs (FIGS. 13C-13F). DOI was cleared from the plasma as well as the brain, liver, and kidneys by ˜12 hrs post-implantation. The release profile of the same dose of DOI from 0.4 mm thick films can also be measured, as can the release profile of DOI from multilayered CAPP films with three DOI-loaded 0.1 mm thick films separated by 0.4 mm thick blank films.

[4] = Pilot pharmacokinetics of DOI from subcutaneously implanted 0.1 mm CAPP films; assay type: in vivo; details: DOI-loaded 0.1 mm CAPP film, subcutaneous, CD-1 mice
Excerpt: as §1, with “DOI was cleared from the plasma as well as the brain, liver, and kidneys by ˜12 hrs post-implantation.” left out

[5] = In vitro release kinetics from multilayered CAPP films (Rhodamine as model drug); assay type: physicochemical
Excerpt: The layering strategy (i.e., alternating 0.1 mm and 0.4 mm films) was chosen based on the results in FIGS. 4A-4B showing that 0.1 mm films erode in ˜24 hrs while 0.4 mm films erode in ˜70-80 hrs. Additionally, each layer was engineered to degrade by either bulk or surface erosion based on the function of that particular layer. The drug-loaded, 0.1 mm thick layers should degrade via bulk erosion such that the drug is rapidly released from these layers in a bolus. However, the “blank” 0.4 mm layers should erode via surface erosion to ensure gradual degradation of the blank layer from “top-to-bottom” to maintain ordered pulses of release over time. Therefore, the absorption of water into polymeric films composed of a range of CAP:P ratios was examined, since bulk erosion occurs in materials where the rate of water absorption is greater than the degradation rate. By contrast, surface erosion occurs in materials where the rate of degradation is greater than the rate of water absorption into the material. […] Therefore, multilayered films with 0.1 mm drug-loaded layers composed of 70:30 (bulk-eroding) CAPP films and 0.4 mm blank layers composed of 90:10 (surface eroding) CAPP films were produced. Lastly, the erosion time for CAPP films of CAP:P ratios varying from 70:30-90:10 was examined to inform the construction of multilayer devices that are to be composed of both 70:30 and 90:10 CAPP films. […] As film thickness increases, erosion time of the films increases proportionally.
We constructed multilayer CAPP films of alternating 0.1 mm bulk eroding, drug-loaded layers and 0.4 mm surface eroding, blank layers and observed drug release kinetics from these films using Rhodamine as a model drug. […] However, in these preliminary results the third drug pulse is not obvious and the gaps between pulses have some variability. A new layering design was implemented to counter these shortcomings; including adding two “blank” layers between each drug-loaded film, as well as having “blank” layers on the bottom of the device to maintain device structure through the third drug pulse.

[6] = multilayer film, alternating 0.1 mm drug-loaded and 0.4 mm blank layers

T1 sequence (P28223 whole entry): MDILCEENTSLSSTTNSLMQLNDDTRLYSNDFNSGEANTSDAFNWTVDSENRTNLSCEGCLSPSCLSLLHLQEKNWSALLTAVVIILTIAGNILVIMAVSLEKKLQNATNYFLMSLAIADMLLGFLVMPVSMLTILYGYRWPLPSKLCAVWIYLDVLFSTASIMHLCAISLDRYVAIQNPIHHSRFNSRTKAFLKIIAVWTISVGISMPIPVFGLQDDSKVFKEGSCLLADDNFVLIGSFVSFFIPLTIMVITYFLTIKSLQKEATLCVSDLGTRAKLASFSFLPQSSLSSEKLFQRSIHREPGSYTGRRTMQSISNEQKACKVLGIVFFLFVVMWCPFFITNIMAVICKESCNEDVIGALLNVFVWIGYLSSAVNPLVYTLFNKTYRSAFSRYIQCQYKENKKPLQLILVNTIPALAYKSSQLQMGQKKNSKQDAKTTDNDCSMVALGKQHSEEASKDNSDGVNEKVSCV

## CCN(CC)C(=O)[C@@H]1C=C2c3cccc4c3c(cn4C(=O)C3CC3)C[C@H]2N(C)C1 [1cp-LSD, N1-(cyclopropylmethanoyl)-lysergic acid diethylamide]
5HT2A receptor
  calcium flux downstream of 5HT2A receptor activation: significant induction of calcium

## CC(=O)Oc1cccc2[nH]cc(CCN(C)C)c12 [4-acetoxy DMT, O-acetylpsilocin]
[1]
  release rate compared with Rhodamine dye: very similar rate

## COc1cc(CC(C)N)c(OC)cc1I (stereo not drawn) [DOI, 2,5-dimethoxy-4-iodoamphetamine]
[2]
  concentration profile in brain, liver, and kidneys: matched the pulsed profile of the blood plasma
[2]; post-implantation
  time of peak plasma concentration, first pulse: ~2 h
  time of peak plasma concentration, second pulse: ~12 h
  time of peak plasma concentration, third pulse: ~24 h
[3]
  time by which cleared from plasma, brain, liver, and kidneys: ~12 h
  time of peak concentration in brain, liver, and kidneys: 2 to 4 h
  time of peak concentration in plasma: 2 h
[4]; 8 hrs post-implantation
  detection in blood: consistently detected
[4]; remained at baseline through 24 hrs
  time at which blood concentration returned to baseline: ≤ 16 h
5HT2A receptor
  calcium flux downstream of 5HT2A receptor activation: significant induction of calcium
[1]
  release rate compared with Rhodamine dye: very similar rate

## CCN(CC)c1ccc2c(-c3ccccc3C(=O)O)c3ccc(=[N+](CC)CC)cc-3oc2c1 [Rhodamine, rhodamine B]
[5]; [6]
  time of peak of first drug pulse: 16 h
  time of peak of second drug pulse: 72 h
  time of peak of third drug pulse: ~120 h
[5]; second generation design, two blank layers between drug-loaded films and blank layers at bottom
  spacing between three intermittent drug pulses: ~70 h
[1]; from 0.1 mm thick single-layered CAPP film
  time to complete release: ~18 h
[1]; from 0.2 mm thick single-layered CAPP film
  time to complete release: ~36 h
[1]; from 0.3 mm thick single-layered CAPP film
  time to complete release: ~60 h
[1]; from 0.4 mm thick single-layered CAPP film
  time to complete release: ~78 h
